US12077503B2, “Substituted cyclic amides and their use as herbicides” (FMC CORPORATION, priority 2015, dated 2024)

Tests used:
Assay type in all cases: in vivo
[1] = system: ivy-leaved morning glory (Ipomoea hederacea); assay: Test G Post-Emergence Protocol; conditions: Ipomoea, post-emergence, 312 h, read-out: Morningglory, Ivy-leaved damage rating; for pest or weed control at 15.625 g/ha: 15.625 g ai/ha, evaluated after 13 days (100=total damage to plant; 0=no damage to plant); for pest or weed control at 62.5 g/ha: 62.5 g ai/ha; for pest or weed control at 62.5 g/ha / pest or weed control at 250 g/ha: evaluated after 13 days, 100=total damage to plant, 0=no damage to plant; for pest or weed control at 250 g/ha: 250 g ai/ha
Outline: (§1)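 Damage was rated 13 days after treatment from 0 (none) to 100 (plant killed). Compound was applied as a spray at 15.625, 62.5 or 250 g/ha in 50:50 acetone/water containing 0.5% Tween 20, onto 8-day-old potted plants kept in a glasshouse (24/16 °C, 14 h light, 65% humidity).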

[2] = system: barnyardgrass (Echinochloa crus-galli); assay: Test G Post-Emergence Protocol; conditions: Echinochloa crus-galli, post-emergence, 312 h, read-out: Barnyardgrass damage rating; for pest or weed control at 15.625 g/ha: 15.625 g ai/ha, evaluated after 13 days (100=total damage to plant; 0=no damage to plant); for pest or weed control at 62.5 g/ha: 62.5 g ai/ha; for pest or weed control at 62.5 g/ha / pest or weed control at 250 g/ha: evaluated after 13 days, 100=total damage to plant, 0=no damage to plant; for pest or weed control at 250 g/ha: 250 g ai/ha
Outline: as §1

[3] = system: giant foxtail (Setaria faberi); assay: Test G Post-Emergence Protocol; conditions: Setaria faberi, post-emergence, 312 h, read-out: Foxtail, Giant damage rating; for pest or weed control at 15.625 g/ha: 15.625 g ai/ha, evaluated after 13 days (100=total damage to plant; 0=no damage to plant); for pest or weed control at 62.5 g/ha: 62.5 g ai/ha; for pest or weed control at 62.5 g/ha / pest or weed control at 250 g/ha: evaluated after 13 days, 100=total damage to plant, 0=no damage to plant; for pest or weed control at 250 g/ha: 250 g ai/ha
Outline: as §1

corn (Zea mays) [4] = assay: Test G Post-Emergence Protocol; conditions: Zea mays, post-emergence, 312 h, read-out: Corn damage rating; for plant injury at 15.625 g/ha: 15.625 g ai/ha, evaluated after 13 days (100=total damage to plant; 0=no damage to plant); for plant injury at 62.5 g/ha: 62.5 g ai/ha; for plant injury at 62.5 g/ha / plant injury at 250 g/ha: evaluated after 13 days, 100=total damage to plant, 0=no damage to plant; for plant injury at 250 g/ha: 250 g ai/ha
Outline: as §1

[5] = system: redroot pigweed (Amaranthus retroflexus); assay: Test G Post-Emergence Protocol; conditions: Amaranthus retroflexus, post-emergence, 312 h, read-out: Pigweed, Redroot damage rating; for pest or weed control at 15.625 g/ha: 15.625 g ai/ha, evaluated after 13 days (100=total damage to plant; 0=no damage to plant); for pest or weed control at 62.5 g/ha: 62.5 g ai/ha; for pest or weed control at 62.5 g/ha / pest or weed control at 250 g/ha: evaluated after 13 days, 100=total damage to plant, 0=no damage to plant; for pest or weed control at 250 g/ha: 250 g ai/ha
Outline: as §1

[6] = system: velvetleaf (Abutilon theophrasti); assay: Test G Post-Emergence Protocol; conditions: Abutilon theophrasti, post-emergence, 312 h, read-out: Velvetleaf damage rating; for pest or weed control at 15.625 g/ha: 15.625 g ai/ha, evaluated after 13 days (100=total damage to plant; 0=no damage to plant); for pest or weed control at 62.5 g/ha: 62.5 g ai/ha; for pest or weed control at 62.5 g/ha / pest or weed control at 250 g/ha: evaluated after 13 days, 100=total damage to plant, 0=no damage to plant; for pest or weed control at 250 g/ha: 250 g ai/ha
Outline: as §1

[7] = system: ivy-leaved morning glory (Ipomoea hederacea); assay: Test G Pre-Emergence Protocol; conditions: Ipomoea, pre-emergence, 312 h, evaluated after 13 days; for pest or weed control at 15.625 g/ha: 15.625 g ai/ha; for pest or weed control at 15.625 g/ha / pest or weed control at 250 g/ha: read-out: Morningglory, Ivy-leaved damage rating (100=total damage to plant; 0=no damage to plant); for pest or weed control at 62.5 g/ha: 62.5 g ai/ha, 100=total damage to plant, 0=no damage to plant, read-out: Morningglory, Ivy-leaved damage rating; for pest or weed control at 250 g/ha: 250 g ai/ha
Outline: (§2)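 One day after sowing, pots are treated with a spray of test compound formulated in acetone/water 50:50 plus 0.5% Tween 20, giving 15.625, 62.5 or 250 g/ha. Evaluation on a 0–100 damage scale follows 13 days of glasshouse growth.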

[8] = system: barnyardgrass (Echinochloa crus-galli); assay: Test G Pre-Emergence Protocol; conditions: Echinochloa crus-galli, pre-emergence, 312 h, evaluated after 13 days; for pest or weed control at 15.625 g/ha: 15.625 g ai/ha; for pest or weed control at 15.625 g/ha / pest or weed control at 250 g/ha: read-out: Barnyardgrass damage rating (100=total damage to plant; 0=no damage to plant); for pest or weed control at 62.5 g/ha: 62.5 g ai/ha, 100=total damage to plant, 0=no damage to plant, read-out: Barnyardgrass damage rating; for pest or weed control at 250 g/ha: 250 g ai/ha
Outline: as §2

[9] = system: giant foxtail (Setaria faberi); assay: Test G Pre-Emergence Protocol; conditions: Setaria faberi, pre-emergence, 312 h, evaluated after 13 days; for pest or weed control at 15.625 g/ha: 15.625 g ai/ha; for pest or weed control at 15.625 g/ha / pest or weed control at 250 g/ha: read-out: Foxtail, Giant damage rating (100=total damage to plant; 0=no damage to plant); for pest or weed control at 62.5 g/ha: 62.5 g ai/ha, 100=total damage to plant, 0=no damage to plant, read-out: Foxtail, Giant damage rating; for pest or weed control at 250 g/ha: 250 g ai/ha
Outline: as §2

corn (Zea mays) [10] = assay: Test G Pre-Emergence Protocol; conditions: Zea mays, pre-emergence, 312 h, evaluated after 13 days; for plant injury at 15.625 g/ha: 15.625 g ai/ha; for plant injury at 15.625 g/ha / plant injury at 250 g/ha: read-out: Corn damage rating (100=total damage to plant; 0=no damage to plant); for plant injury at 62.5 g/ha: 62.5 g ai/ha, 100=total damage to plant, 0=no damage to plant, read-out: Corn damage rating; for plant injury at 250 g/ha: 250 g ai/ha
Outline: as §2

[11] = system: redroot pigweed (Amaranthus retroflexus); assay: Test G Pre-Emergence Protocol; conditions: Amaranthus retroflexus, pre-emergence, 312 h, evaluated after 13 days; for pest or weed control at 15.625 g/ha: 15.625 g ai/ha; for pest or weed control at 15.625 g/ha / pest or weed control at 250 g/ha: read-out: Pigweed, Redroot damage rating (100=total damage to plant; 0=no damage to plant); for pest or weed control at 62.5 g/ha: 62.5 g ai/ha, 100=total damage to plant, 0=no damage to plant, read-out: Pigweed, Redroot damage rating; for pest or weed control at 250 g/ha: 250 g ai/ha
Outline: as §2

[12] = system: velvetleaf (Abutilon theophrasti); assay: Test G Pre-Emergence Protocol; conditions: Abutilon theophrasti, pre-emergence, 312 h, evaluated after 13 days; for pest or weed control at 15.625 g/ha: 15.625 g ai/ha; for pest or weed control at 15.625 g/ha / pest or weed control at 250 g/ha: read-out: Velvetleaf damage rating (100=total damage to plant; 0=no damage to plant); for pest or weed control at 62.5 g/ha: 62.5 g ai/ha, 100=total damage to plant, 0=no damage to plant, read-out: Velvetleaf damage rating; for pest or weed control at 250 g/ha: 250 g ai/ha
Outline: as §2

Structure (SMILES) | pest or weed control at 15.625 g/ha [1] [%] | pest or weed control at 62.5 g/ha [1] [%] | pest or weed control at 250 g/ha [1] [%] | pest or weed control at 15.625 g/ha [2] [%] | pest or weed control at 62.5 g/ha [2] [%] | pest or weed control at 250 g/ha [2] [%] | pest or weed control at 15.625 g/ha [3] [%] | pest or weed control at 62.5 g/ha [3] [%] | pest or weed control at 250 g/ha [3] [%] | plant injury at 15.625 g/ha (corn (Zea mays) [4]) [%] | plant injury at 62.5 g/ha (corn (Zea mays) [4]) [%] | plant injury at 250 g/ha (corn (Zea mays) [4]) [%] | pest or weed control at 15.625 g/ha [5] [%] | pest or weed control at 62.5 g/ha [5] [%] | pest or weed control at 250 g/ha [5] [%] | pest or weed control at 15.625 g/ha [6] [%] | pest or weed control at 62.5 g/ha [6] [%] | pest or weed control at 250 g/ha [6] [%] | pest or weed control at 15.625 g/ha [7] [%] | pest or weed control at 62.5 g/ha [7] [%] | other results
COC(=O)c1cc([C@H]2CN(C)C(=O)[C@@H]2C(=O)Nc2cccc(F)c2F)ccc1C (racemic) [Compound 1683] | 30 | 30 | 50 | 70 | 70 | 80 | 70 | 80 | 80 | 20 | 40 | 80 | 30 | 10 | 40 | 0 | 20 | 50 | 0 | 10 | pest or weed control at 250 g/ha [7]: 60%; pest or weed control at 15.625 g/ha [8]: 60%; pest or weed control at 62.5 g/ha [8]: 70%; pest or weed control at 250 g/ha [8]: 80%; pest or weed control at 15.625 g/ha [9]: 70%; pest or weed control at 62.5 g/ha [9]: 80%; pest or weed control at 250 g/ha [9]: 90%; plant injury at 15.625 g/ha (corn (Zea mays) [10]): 30%; plant injury at 62.5 g/ha (corn (Zea mays) [10]): 50%; plant injury at 250 g/ha (corn (Zea mays) [10]): 80%; pest or weed control at 15.625 g/ha [11]: 20%; pest or weed control at 62.5 g/ha [11]: 20%; pest or weed control at 250 g/ha [11]: 20%; pest or weed control at 15.625 g/ha [12]: 0%; pest or weed control at 62.5 g/ha [12]: 10%; pest or weed control at 250 g/ha [12]: 30%
CN1CC(c2cc(F)c(Cl)c(F)c2)C(C(=O)Nc2cccc(F)c2F)C1=O (stereo not drawn) [Compound 1703] | 60 | 60 | 60 | 50 | 70 | 80 | 70 | 70 | 80 | 0 | 0 | 80 | 20 | 60 | 80 | 10 | 40 | 70 | 0 | 0 | pest or weed control at 250 g/ha [7]: 40%; pest or weed control at 15.625 g/ha [8]: 50%; pest or weed control at 62.5 g/ha [8]: 80%; pest or weed control at 250 g/ha [8]: 80%; pest or weed control at 15.625 g/ha [9]: 80%; pest or weed control at 62.5 g/ha [9]: 80%; pest or weed control at 250 g/ha [9]: 90%; plant injury at 15.625 g/ha (corn (Zea mays) [10]): 0%; plant injury at 62.5 g/ha (corn (Zea mays) [10]): 60%; plant injury at 250 g/ha (corn (Zea mays) [10]): 80%; pest or weed control at 15.625 g/ha [11]: 0%; pest or weed control at 62.5 g/ha [11]: 0%; pest or weed control at 250 g/ha [11]: 10%; pest or weed control at 15.625 g/ha [12]: 0%; pest or weed control at 62.5 g/ha [12]: 0%; pest or weed control at 250 g/ha [12]: 30%
CN1CC(c2ccc(Cl)c([N+](=O)[O-])c2)C(C(=O)Nc2cccc(F)c2F)C1=O (stereo not drawn) [Compound 1685] | 40 | 30 | 70 | 30 | 60 | 80 | 70 | 70 | 80 | 10 | 40 | 70 | 40 | 50 | 70 | 10 | 30 | 60 | 10 | 20 | pest or weed control at 250 g/ha [7]: 30%; pest or weed control at 15.625 g/ha [8]: 30%; pest or weed control at 62.5 g/ha [8]: 70%; pest or weed control at 250 g/ha [8]: 80%; pest or weed control at 15.625 g/ha [9]: 40%; pest or weed control at 62.5 g/ha [9]: 70%; pest or weed control at 250 g/ha [9]: 90%; plant injury at 15.625 g/ha (corn (Zea mays) [10]): 0%; plant injury at 62.5 g/ha (corn (Zea mays) [10]): 0%; plant injury at 250 g/ha (corn (Zea mays) [10]): 60%; pest or weed control at 15.625 g/ha [11]: 0%; pest or weed control at 62.5 g/ha [11]: 10%; pest or weed control at 250 g/ha [11]: 60%; pest or weed control at 15.625 g/ha [12]: 10%; pest or weed control at 62.5 g/ha [12]: 10%; pest or weed control at 250 g/ha [12]: 30%
